According to patent US20230083973A1, “SUBSTITUTED CYCLOPROPYL-2,2'-BIP[…], ANALOGUES THEREOF, AND METHODS USING SAME” (priority 2019, published 2023):

The molecules below were run on HBsAg (assay: HBsAg assay: inhibition of HBsAg in HepG2.2.15 cells (chemiluminescence immunoassay of supernatant)). Conditions: Hepatitis B virus, HepG2.2.15, 144 h, read-out: sAg EC50, HepG2.2.15 cells; HBsAg in supernatant at day 6 after exposure to compound; 0.5% DMSO.
Assay type: cell-based, hepatitis B virus
In short: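 HepG2.2.15 cells treated with serially diluted compounds (0.5% DMSO), medium and compound refreshed after 2–3 days, supernatant harvested at day 6. Secreted HBsAg measured by chemiluminescence immunoassay; EC50 from dose-response curves, with parallel CellTiter-Glo viability at 5,000 cells/well.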
With COc1cc([C@@H]2C[C@H]2c2cnc(-c3ccccn3)nc2)cc(OC)c1OC (relative stereo) [Example 176, trans-2-(Pyridin-2-yl)-5-(2-(3,4,5-trimethoxyphenyl)cyclopropyl)pyrimidine] the EC50 was 2000 nM.
COCCCn1cc2c([C@@H]3C[C@H]3c3cnc(-c4ncccn4)nc3)ccc(F)c2n1 (relative stereo) [Example 277, trans-4-(2-([2,2′-Bipyrimidin]-5-yl)cyclopropyl)-7-fluoro-2-(3-methoxypropyl)-2H-indazole] showed an EC50 of 30 nM.
Molecule COc1c(Cl)ccc(C2CC2c2cnc(-c3ncccn3)nc2)c1Cl (single isomer, unassigned) [Example 132, trans-5-(2-(2,4-Dichloro-3-methoxyphenyl)cyclopropyl)-2,2′-bipyrimidine] has an EC50 of 120 nM.
With COc1cc([C@@H]2C[C@H]2c2cnc(-c3ccccn3)nc2)cc(OC)c1F (relative stereo) [Example 175, trans-5-(2-(4-Fluoro-3,5-dimethoxyphenyl)cyclopropyl)-2-(pyridin-2-yl)pyrimidine] the EC50 was 350 nM.
In the case of Fc1ccc([C@@H]2C[C@H]2c2cnc(-c3ncccn3)nc2)c2cccnc12 (relative stereo) [Example 172, trans-5-(2-([2,2′-Bipyrimidin]-5-yl)cyclopropyl)-8-fluoroquinoline], the EC50 is reported as 250 nM.
Work on O[C@@H]1CCN(c2cc(C3CC3c3cnc(-c4ncccn4)nc3)ccc2F)C1 (single isomer, unassigned) [Example 69] yielded an EC50 of 170 nM.

Same assay, conditions: read-out: sAg EC50; HepG2.2.15 cells; HBsAg in supernatant at day 6 after exposure to compound; 0.5% DMSO
CNC(=O)c1cc(C2CC2c2cnc(-c3ncccn3)nc2)ccc1Cl (single isomer, unassigned) [Example 202, trans-5-(2-([2,2′-Bipyrimidin]-5-yl)cyclopropyl)-2-chloro-N-methylbenzamide] was tested, and the EC50 was 4000 nM.
COc1c(Cl)ccc(C2CC2c2cnc(-c3ncccn3)nc2)c1C (single isomer, unassigned) [Example 71, trans-5-(2-(4-Chloro-3-methoxy-2-methylphenyl)cyclopropyl)-2,2′-bipyrimidine] gave an EC50 of 200 nM.
Work on COc1cc(C2CC2c2cnc(-c3ncccn3)nc2)cc(C)c1F (single isomer, unassigned) [Example 150, trans-5-(2-(4-Fluoro-3-methoxy-5-methylphenyl)cyclopropyl)-2,2′-bipyrimidine] yielded an EC50 of 1000 nM.
COC1CN(c2cc(C3CC3c3cnc(-c4ncccn4)nc3)ccc2F)C1 (single isomer, unassigned) [Example 48, trans-5-(2-(4-Fluoro-3-(3-methoxyazetidin-1-yl)phenyl)cyclopropyl)-2,2′-bipyrimidine] was tested, and the EC50 was 32 nM.
With CO[C@H]1CCN(c2cc(C3CC3c3cnc(-c4ncccn4)nc3)cc(F)c2F)C1 (single isomer, unassigned) [Example 103] the EC50 was 8 nM.
With COc1c(F)ccc(C2CC2c2cnc(-c3ncccn3)nc2)c1F (single isomer, unassigned) [Example 189, trans-5-(2-(2,4-Difluoro-3-methoxyphenyl)cyclopropyl)-2,2′-bipyrimidine] the EC50 was 120 nM.
For COc1cc(C2CC2c2cnc(-c3ncccn3)nc2)cc(OC)c1Cl (single isomer, unassigned) [Example 98, trans-5-(2-(4-Chloro-3,5-dimethoxyphenyl)cyclopropyl)-2,2′-bipyrimidine], the EC50 was 350 nM.
With O[C@H]1CCN(c2cc(C3CC3c3cnc(-c4ncccn4)nc3)cc(F)c2F)C1 (single isomer, unassigned) [Example 106] the EC50 was 85 nM.
Work on COc1cc(C2CC2c2cnc(-c3ncccn3)nc2)cc(C)c1F (single isomer, unassigned) [Example 151, trans-5-(2-(4-Fluoro-3-methoxy-5-methylphenyl)cyclopropyl)-2,2′-bipyrimidine] yielded an EC50 of 81 nM.
For COc1cc(C2CC2c2cnc(-c3ncccn3)nc2C(C)C)ccc1F (single isomer, unassigned) [Example 75, trans-5-(2-(4-Fluoro-3-methoxyphenyl)cyclopropyl)-4-isopropyl-2,2′-bipyrimidine], the EC50 was 2000 nM.
